Assay results from patent publication US6555692B1, “Preparation and use of bifunctional molecules having DNA sequence binding specificity” (California Institute of Technology, priority 1996, dated 2003).

What was measured:
5′-TGTCAAGACA-3′ = experiment: Recognition of 9-11 base pairs (Table 9); format: binding; details: 22° C. and pH 7.0
Text: (§1) Table 9 illustrates recognition of recognition of 9-11 base pairs by ImPyPy-X-ImPyPy-β-Dp.

5′-TGTCAGACA-3′ = experiment: Recognition of 9-11 base pairs (Table 9); format: binding; details: 22° C. and pH 7.0
Text: as §1

5′-gcggtTGTCAacccg-3′ = experiment: Recognition of 9-11 base pairs (Table 9); format: binding; details: 22° C. and pH 7.0
Text: as §1

5′-TGTCAAAGACA-3′ = experiment: Recognition of 9-11 base pairs (Table 9); format: binding; details: 22° C. and pH 7.0
Text: as §1

5′-AACCAAGTCTTGGTA-3′ = experiment: Association constants, recognition of 15 base pairs; details: for Ka Match: Table 5, ImPyPy-X-ImImPy-γ-PyPyPy-β-Dp, 24° C., pH 7.0; for Specificity Center mismatch / Specificity Edge mismatch: Table 5; for Specificity Center mismatch: match vs 5′-AACCAACTGTTGGTA-3′; for Specificity Edge mismatch: match vs 5′-AACCAAGTCTTGCGA-3′
[1] = tested on: 5 to 10 base pair sites based on a 5′-TGACA-3′ core sequence; experiment: Footprint titration of three- to eight-ring polyamide dimers (Table 2); format: binding; details: 22° C., pH 7.0; for association constant: mean of at least three footprint titrations
Text: To determine the effect of polyamide length on binding site size, binding affinity, and sequence specificity, a series of six polyamides containing three to eight rings was synthesized. (Kelly, et al. Proc. Natl. Acad. Sci. U.S.A. 93, 6981-6985 (1996).) The series is based on ImPyPy-Dp with pyrrolecarboxamide moieties added sequentially to the C-termini to afford ImPyPyPy-Dp, ImPyPyPyPy-Dp, ImPyPyPyPyPy-Dp, ImPyPyPyPyPyPy-Dp, and ImPyPyPyPyPyPyPy-Dp which are designed to bind 5 to 10 base pair sites, respectively as side-by-side antiparallel dimers. DNA binding sites are based on a 5′-TGACA-3′ core sequence and contain sequential A,T inserts in the center of the binding site that will be recognized by the additional pyrrole carboxamides.

Which results are given for CN(C)CCCNC(=O)CCNC(=O)c1cc(NC(=O)c2cc(NC(=O)c3nc(NC(=O)CCCCCCNC(=O)c4cc(NC(=O)c5cc(NC(=O)c6nccn6C)cn5C)cn4C)cn3C)cn2C)cn1C [ImPyPy-C7-ImPyPy-β-Dp]?
5′-TGTCAAGACA-3′ (5′-TGTCAAGACA-3′): 1 × 10^8; 5′-TGTCAGACA-3′ (5′-TGTCAGACA-3′): 2 × 10^7; 5′-gcggtTGTCAacccg-3′ (5′-gcggtTGTCAacccg-3′): 7 × 10^7; 5′-TGTCAAAGACA-3′ (5′-TGTCAAAGACA-3′): 3 × 10^7

For CN(C)CCCNC(=O)CCNC(=O)c1cc(NC(=O)c2cc(NC(=O)c3cc(NC(=O)CCCNC(=O)c4cc(NC(=O)c5nc(NC(=O)c6nc(NC(=O)CCCCCCCNC(=O)c7cc(NC(=O)c8cc(NC(=O)c9nccn9C)cn8C)cn7C)cn6C)cn5C)cn4C)cn3C)cn2C)cn1C [ImPyPy-C8-ImImPy-γ-PyPyPy-β-Dp, ImPyPy-X-ImImPy-γ-PyPyPy-β-Dp], which “Ka Match” value (5′-AACCAAGTCTTGGTA-3′) is on record?
Its value is 2e+08 M⁻¹.

What about the “Specificity Center mismatch” value (5′-AACCAAGTCTTGGTA-3′) of the same compound?
The value was 10.

What about the “Specificity Edge mismatch” value (5′-AACCAAGTCTTGGTA-3′) of the same compound?
Its value is 10.

Which “specificity (ratio of match site affinity to affinity of the single base pair mismatch site)” value [1] does the source give for CN(C)CCCNC(=O)c1cc(NC(=O)c2cc(NC(=O)c3nccn3C)cn2C)cn1C [ImPyPy-Dp] here?
The value was 6.5-fold.

And the association constant [1]?
Its association constant is 130000 M⁻¹.

Which results are given for CN(C)CCCNC(=O)CCNC(=O)c1cc(NC(=O)c2cc(NC(=O)c3cc(NC(=O)CCCNC(=O)c4cc(NC(=O)c5nc(NC(=O)c6nc(NC(=O)CCCCNC(=O)CCNC(=O)c7cc(NC(=O)c8cc(NC(=O)c9nccn9C)cn8C)cn7C)cn6C)cn5C)cn4C)cn3C)cn2C)cn1C [ImPyPy-β-C5-ImImPy-γ-PyPyPy-β-Dp, ImPyPy-X-ImImPy-γ-PyPyPy-β-Dp]?
Ka Match (5′-AACCAAGTCTTGGTA-3′): 1e+08 M⁻¹; Specificity Center mismatch (5′-AACCAAGTCTTGGTA-3′): 2; Specificity Edge mismatch (5′-AACCAAGTCTTGGTA-3′): 2

Which “Ka 5′-AACCAAGTCTTGGTA-3′” value (5′-AACCAAGTCTTGGTA-3′; Table 7, C3-OH polyamides, match site) does the source give for Cn1cc(NC(=O)c2cc(NC(=O)c3cc(NC(=O)CCCNC(=O)c4cc(NC(=O)c5nc(NC(=O)c6nc(NC(=O)CCNC(=O)CCNC(=O)c7cc(NC(=O)c8cc(NC(=O)c9nccn9C)cn8C)cn7C)cn6C)cn5C)cn4C)cn3C)cn2C)cc1C(=O)NCCCO [ImPyPy-β-β-ImImPy-γ-PyPyPy-C3—OH] here?
Its value is 1 × 10^8.

What about the “Specificity 5′-AACCAACTGTTGGTA-3′” value (5′-AACCAAGTCTTGGTA-3′; Table 7, center mismatch) of the same compound?
The value was 3.

And the “Specificity 5′-AACCAAGTCTTGCGA-3′” value (5′-AACCAAGTCTTGGTA-3′; Table 7, edge mismatch)?
The value was 3.

Which “Ka Match” value (5′-AACCAAGTCTTGGTA-3′) does the source give for CN(C)CCCNC(=O)CCNC(=O)c1cc(NC(=O)c2cc(NC(=O)c3cc(NC(=O)CCCNC(=O)c4cc(NC(=O)c5nc(NC(=O)c6nc(NC(=O)CCNC(=O)CCNC(=O)c7cc(NC(=O)c8cc(NC(=O)c9nccn9C)cn8C)cn7C)cn6C)cn5C)cn4C)cn3C)cn2C)cn1C [ImPyPy-β-β-ImImPy-γ-PyPyPy-β-Dp, ImPyPy-X-ImImPy-γ-PyPyPy-β-Dp] here?
The value was 3e+08 M⁻¹.

And the “Specificity Center mismatch” value (5′-AACCAAGTCTTGGTA-3′)?
Its value is 2.

What about the “Specificity Edge mismatch” value (5′-AACCAAGTCTTGGTA-3′) of the same compound?
Its value is 2.

What does the source list for CN(C)CCCNC(=O)CCNC(=O)c1cc(NC(=O)c2cc(NC(=O)c3cc(NC(=O)CCCNC(=O)c4cc(NC(=O)c5nc(NC(=O)c6nc(NC(=O)CCCNC(=O)c7cc(NC(=O)c8cc(NC(=O)c9nccn9C)cn8C)cn7C)cn6C)cn5C)cn4C)cn3C)cn2C)cn1C [ImPyPy-γ-ImImPy-γ-PyPyPy-β-Dp, ImPyPy-X-ImImPy-γ-PyPyPy-β-Dp]?
Ka Match (5′-AACCAAGTCTTGGTA-3′): 1e+07 M⁻¹; Specificity Center mismatch (5′-AACCAAGTCTTGGTA-3′): 1; Specificity Edge mismatch (5′-AACCAAGTCTTGGTA-3′): 1

Which results are given for CN(C)CCCNC(=O)c1cc(NC(=O)c2cc(NC(=O)c3cc(NC(=O)c4nccn4C)cn3C)cn2C)cn1C [ImPyPyPy-Dp]?
specificity (ratio of match site affinity to affinity of the single base pair mismatch site) [1]: 5.3-fold; association constant [1]: 8.5e+06 M⁻¹

CN(C)CCCNC(=O)c1cc(NC(=O)c2cc(NC(=O)c3cc(NC(=O)c4cc(NC(=O)c5cc(NC(=O)c6cc(NC(=O)c7nccn7C)cn6C)cn5C)cn4C)cn3C)cn2C)cn1C [ImPyPyPyPyPyPy-Dp] was tested. Which “specificity (ratio of match site affinity to affinity of the single base pair mismatch site)” value [1] did it give?
Its value is 2.8-fold.

What about the association constant [1] of the same compound?
Its association constant is 4.7e+07 M⁻¹.

With ImPyPyPyPy-Dp as the compound, how does the “specificity (ratio of match site affinity to affinity of the single base pair mismatch site)” value [1] read?
Its value is 5.7-fold.

And the association constant [1]?
Its association constant is 4.5e+07 M⁻¹.

With ImPyPyPyPyPy-Dp as the compound, how does the “specificity (ratio of match site affinity to affinity of the single base pair mismatch site)” value [1] read?
The value was 2.7-fold.

And the association constant [1]?
Its association constant is 5.3e+07 M⁻¹.

Which “specificity (ratio of match site affinity to affinity of the single base pair mismatch site)” value [1] does the source give for ImPyPyPyPyPyPyPy-Dp here?
The value was 1-fold.

And the association constant [1]?
The association constant was under 2e+07 M⁻¹.
